Values quoted from earlier work, collected in patent publication US20120263714A1, “SUBSTITUTED HALOPHENOXYBENZAMIDE DERIVATIVES” (BAYER INTELLECTUAL PROPERTY GMBH, priority 2009, published 2012).

What was measured:
colon cancer = conditions: oral treatment, mouse models
MEK1/2 = MEK1/2 inhibitor, background statement

IC50 (MEK1/2): low nanomolar range
Structure (SMILES): O=C(NOCC1CC1)c1ccc(F)c(F)c1Nc1ccc(I)cc1Cl [CI-1040]
colon cancer growth in vivo (colon cancer): inhibit colon cancer growth in vivo
